Measurements from patent US20260378560A1, “APPROACHES TO DESIGNING AND PERFORMING COMPRESSED BIOLOGICAL EXPERIMENTS AND SYSTEMS FOR IMPLEMENTING THE SAME” (EXVIVO LABS INC., priority 2023, published 2026).

Key:
[1] = tested on: library of cancer cell lines; experiment: Hit profile of cancer drugs across library of cancer cell lines (cell viability); format: cell-based; settings: across cancer cell lines screened individually
Method: Total cell viability was measured for each cancer cell line using an Adenosine TriPhosphate (“ATP”) assay, and more specifically an ATP-based luminescence assay (i.e., CellTiter Glo). Each cancer drug was screened at multiple concentrations ranging from one nanomolar (nM) to ten micromolar (UM) in order to generate a dose-response curve and calculate a drug response score (“DRS”) for each cancer cell line. The DRS was calculated as a continuous function of multiple parameters of the non-linear dose-response curve, including the slope at the half-maximal effective concentration (also called “EC50”) and the top and bottom asymptotes of the dose-response curve. […]
Table I includes several examples of cancer drugs and their DRSs across each cancer cell line in the aforementioned experiment.

[2] = tested on: MOLT-4; experiment: ATP-based luminescence cell viability (CellTiter Glo), drug response score, MOLT-4
[3] = tested on: REH; experiment: Cell viability (CellTiter Glo), compressed perturbation pools with informed pool design, SUM-based deconvolution, REH; parameters: scale not given here
Method: (§1) Total cell viability was measured for each sample using an ATP-based luminescence assay (i.e., CellTiter Glo). Each cancer drug was then screened at multiple concentrations ranging from one nM to ten μM in order to generate a dose-response curve and calculate a DRS for each cancer cell line.
(§2) Each cancer drug was cultured with target cells individually. At the end of the screen, samples were either analyzed individually or compressed into pools for analysis. The library was compressed alphabetically into ten cohorts, each of which contained seven cancer drugs present in three out of the seven pools, as shown in Table VII. Said another way, the screening platform 210 generated a “7 pick 3” compressed library by assigning the cancer drugs among different pools. […] The library was also compressed into ten cohorts with pools designed based on information known about each cancer drug, as shown in Table VIII. After cell viability measurement and DRS calculation, the DRS of each cancer drug in the samples generated based on the pools were deconvoluted and compared to the DRS for each cancer drug measured individually.
(§3) In parallel to the exemplary sample compression screen covered in Table VII, perturbations were compressed into pools and then screened. The pools were designed using drug class as a feature with two compression rules (or simply “rules”). The first rule required that drugs from the same class be separated into different cohorts (i.e., mutually exclusive groups of pools). The second rule separated PI3K pathway inhibitors from MAPK pathway inhibitors, as inhibiting these pathways in parallel is known to be synergistic but has not been clinically effective due to dose-limiting toxicities. A benefit of compressing perturbations is the ability to measure additive, antagonistic, and synergistic effects between drugs in the same pool. However, these effects can negatively impact deconvolution of individual drug effects. Therefore, combinations of drugs for which evidence of clinical toxicity exists can be assigned to different pools in accordance with an informed pooling operation. As new preclinical or clinical evidence of toxic combinations becomes available, the rules implemented by the screening platform 210—and more specifically, its algorithm for compressing members of a library—can be updated accordingly.
(§4) In SUM-based deconvolution, an assumption of additivity is used to quantify the individual effects of each perturbation on each target. Additivity implies that each perturbation effect on each target is positively contributing to the overall effect measured for that pool. This is an accurate assumption for certain experiments, such as when targets or samples are compressed. When targets are pooled—or when samples containing different targets are pooled—the effect of each perturbation on each individual target is diluted. In other words, each perturbation has an isolated effect on a target in culture, and the sum total of the isolated effects are measured when pooled. Therefore, SUM-based deconvolution breaks down the sum total measured for a pool and assigns estimated fractional effects to each compressed perturbation or target in the pool. The screening platform 210 used SUM-based deconvolution for all target and sample compression experiments described above.
(§5) As mentioned above, SUM-based deconvolution uses the overlapping pool design to identify relative relationships and ranges for the individual effects of each perturbation. When the overlapping pool design is not sufficient to solve for the polynomials representing perturbation effects, an anchor perturbation can be identified by the screening platform 210 based on rank order and assigned an effect size of zero. The anchor perturbation may be the lowest ranked perturbation in the rank order. This then enables the screening platform 210 to solve for the polynomials for the remaining perturbations.

[4] = tested on: MOLT-4; experiment: Cell viability (CellTiter Glo), compressed perturbation pools with informed pool design, SUM-based deconvolution, MOLT-4; parameters: scale not given here
Method: as §1, §2, §3, §4, §5

[5] = MOLT-4, Sample compression, 5 Pick 3 pools
[6] = MOLT-4, Target compression, 5 Pick 3 pools
[7] = MOLT-4, Target compression, 6 Pick 3 pools
[8] = MOLT-4, Target compression, 7 Pick 3 pools

Structure (SMILES)	Hits (hit profile) [1]	DRS from deconvolution [2, 5]	DRS from deconvolution [2, 6]	DRS from deconvolution [2, 7]	DRS from deconvolution [2, 8]	DRS, REH, SUM [3]	DRS, MOLT-4, SUM [4]
COc1c(OCCCN2CCOCC2)ccc2c1N=C(NC(=O)c1cnc(N)nc1)N1CCN=C21 [Copanlisib]	Multiple	12.24	11.02	8.72	9.83		
COc1cc2ncnc(Nc3ccc(F)c(Cl)c3)c2cc1OCCCN1CCOCC1 [Gefitinib]						1.12	2.22
N#Cc1ccnc(N2C(=O)CC[C@H]2C(=O)N(c2cncc(F)c2)[C@H](C(=O)NC2CC(F)(F)C2)c2ccccc2Cl)c1 [Ivosidenib]	None	0.06	0.21	0.30	0.22		
C=CC(=O)Nc1cc(Nc2nccc(-c3cn(C)c4ccccc34)n2)c(OC)cc1N(C)CCN(C)C [Osimertinib]						0.00	0.54
Cc1[nH]c2ccccc2c1CCNCc1ccc(/C=C/C(=O)NO)cc1 [Panobinostat]	All	14.56	15.32	15.84	14.94		
CC1(C)CCC(CN2CCN(c3ccc(C(=O)NS(=O)(=O)c4ccc(NCC5CCOCC5)c([N+](=O)[O-])c4)c(Oc4cnc5[nH]ccc5c4)c3)CC2)=C(c2ccc(Cl)cc2)C1 [Venetoclax]	One	1.26	0.87	2.79	2.98	5.50	2.44
